In patent US11952385B1, “12-bromo-2,16-dioxa-9,9,18,18-tetramethylpentacyclo[7.7.5.0 1, 21.0 3,8.0 10,15]henicosa3(8),10,12,14-tetraene-7,20-dione as an antimicrobial compound” (KING FAISAL UNIVERSITY, priority 2023, dated 2024):

How the values were obtained:
Type in all cases: cell-based
Conditions in all cases: after 10, 20, 40 and 60 minutes at all dilutions 1:100, 1:200, 1:400, and 1:800
Staphylococcus aureus = assay: Antimicrobial activity by agar dilution, St. Aereus
Experimental: (§1) The antibacterial properties of the synthesized compound (12-bromo-2,16-dioxa-9,9,18,18-tetramethylpentacyclo[7.7.5.0^1,21.0^3,8.0^10,15]henicosa3(8),10,12,14-tetraene-7,20-dione) were studied by the method of agar dilution. Test solutions of each compound was prepared in concentration of 1% using dimethylformamide as a solvent. Then they were diluted in physiological solution to obtain the final experimental dilutions of 1:100, 1:200, 1:400, and 1:800. The effect of these substances were compared with furacillin in a controllable study. The testing microbes used were gram positive bacteria Staphylococcus aureus, gram negative bacteria Pseudomonas aeruginosa, Escherichia coli, and Candida albicans fungus. The experiments used for this survey were meat-pentonlu agar (EPA) for cultivation of bacteria and Saburo environment for fungi. Each experiment used 1 mL of test solution on each plate for 500 minutes. Two drops of emulsified with microbes feel were added. All experimental samples were taken from the agar after 10, 20, 40, 60 minutes in the environment on the basis of Patrk planted. Bacteria were cultivated at a temperature of 37° C. for 1 day and the mushroom was kept in a thermostat for 2 hours at a temperature of 28° C. Then results were checked. […]

Candida albicans = assay: Antimicrobial (antifungal) activity by agar dilution, Candida albicans
Experimental: as §1

Pseudomonas aeruginosa = assay: Antimicrobial activity by agar dilution, Ps. aeruginosa
Experimental: as §1

Escherichia coli = assay: Antimicrobial activity by agar dilution, E. Coli
Experimental: as §1

Measured: inhibition activity compared with the inhibition activity of Furacilin

CC1(C)CC(=O)C2=C(C1)OC13CC(C)(C)CC(=O)C1C2c1cc(Br)ccc1O3 (stereo not shown) [12-bromo-2,16-dioxa-9,9,18,18-tetramethylpentacyclo[7.7.5.0^1,21.0^3,8.0^10,15]henicosa3(8),10,12,14-tetraene-7,20-dione]
higher inhibition activity: all assays above
